Data from US10689377B2 (Mirati Therapeutics, Inc., priority 2017, dated 2020).

What was measured:
[1] = In vitro stability in human whole blood; type: in vitro ADME; settings: male, whole blood diluted to 50% with PBS, pH 7.4, human whole blood diluted to 50% with PBS, 5 μM, 37° C., 240-minute incubation, read-out: Compound Half-life
From the text: Materials: The following reagents were used as received: acetonitrile (HPLC grade, Burdick & Jackson, Madison, Wis.), phosphate buffered saline (PBS), pH 7.4 (Sigma-Aldrich, Co., St. Louis, Mo.), water (HPLC grade, JT Baker, Phillipsburg, N.J.), DMSO (EM Science, Merck KGaA, Darmstadt, Germany) and isopropanol (IPA, reagent grade, EMD Chemicals, Gibbstown, N.J.). Propantheline and esmolol (Sigma-Aldrich) were used as the positive control compounds in the assay. Diazepam (Sigma-Aldrich) was used as an internal standard for quantitation. Human whole blood was obtained from BioIVT (Westbury, N.Y.) […]. All other reagents and solvents were of the highest analytical grade supplied by Sigma (St. Louis, Mo.) and were used as received.
Blood Incubations: The in vitro stability of representative KRas G12C inhibitor compounds of the present invention in the presence whole blood was conducted in the following manner. Esmolol or propantheline, which are known to undergo ester hydrolysis by esterases in blood and plasma, were used as the positive controls in the assays. A 10 mM stock solution of propantheline, esmolol, or a compound of the present invention in DMSO was diluted to 500 μM with DMSO. Aliquots of whole blood (600 μL), in triplicate, were placed in the appropriate wells of a polypropylene 96-deep well plate (Axygen Scientific, Union City, Calif.). The blood was diluted to 50% using PBS, pH 7.4 (600 μL). The diluted blood was pre-incubated for 15 minutes at 37° C. Each well was dosed with 12 μL of the 500 μM DMSO stock simultaneously for a final test concentration of 5 μM. The plates were mixed at 600 rpm for 10 seconds on a plate shaker (IKA MTS 2/4 Digital Microtiter Shaker, VWR). Aliquots of 100 μL from each well of whole blood were transferred to three separate 96-deep well plates labeled 0, 60, or 240 minutes. At the end of each designated time point, the red blood cells were lysed with 100 μL of water, mixed at 600 rpm for one minute, and stopped with 800 μL of acetonitrile containing IS (0.625 μM diazepam). The plates were mixed on the plate shaker at 600 rpm for one minute and spun in a centrifuge at 2095×g for 7 minutes at room temperature using an Allegra benchtop centrifuge (Beckman Coulter, Fullerton, Calif.). Supernatant (100 μL) was transferred to a shallow 96-well plate (Costar) using a liquid sample handling system (Apricot, Perkin-Elmer, Boston, Mass.). The addition of 100 μL of water was added to each sample of supernatant for a final volume of 200 μL. The plates were sealed and the contents of each well were analyzed by LC-MS/MS.
Analytical quantitation: The LC-MS/MS system was comprised of an HTS-PAL autosampler (Leap Technologies, Carrboro, N.C.), an HP1200 HPLC (Agilent, Palo Alto, Calif.), and an API4000 triple quadrupole mass spectrometer (PE Sciex, a division of Applied Biosystems, Foster City, Calif.). […] The total run time, including re-equilibration, for a single injection was 2 minutes. Mass spectrometric detection of the analytes was accomplished using the ESI ionization mode. Ion current was optimized during infusion of a stock solution of propantheline, esmolol, or the representative test compound. Analyte responses, including the IS were measured by multiple reaction monitoring (MRM) of transitions unique to each compound.
Calculations: Data were acquired and peak areas were calculated for test compounds and the internal standard using Analyst 1.6.2 software (Sciex). The mean peak area ratios were calculated by averaging the peak area ratios (n=3) of each test compound and the IS for each sample.
Peak area tables were exported to BioAssay Enterprise (CambridgeSoft, Cambridge, Mass.), where the average analyte-to-internal standard peak area ratios were used to calculate percent remaining (% REM) and half-life (t1/2). Percent remaining (f) was calculated by determining the ratio of the peak area ratio at each time point to the peak area ratio of the time-zero samples. […]

KRas G12C = KRas G12C (Homo sapiens, UniProt P01116, G12C); test: Cellular inhibition of KRas G12C measured by Phospho-ERK in NCI-H358 cells; type: cell-based; settings: pERK(Thr202/Tyr204) normalized with GAPDH, NCI-H358 cells, 3 hours; read-out: IC50
Chain of KRas G12C (P01116 1-188 isoform P01116-2 G12C): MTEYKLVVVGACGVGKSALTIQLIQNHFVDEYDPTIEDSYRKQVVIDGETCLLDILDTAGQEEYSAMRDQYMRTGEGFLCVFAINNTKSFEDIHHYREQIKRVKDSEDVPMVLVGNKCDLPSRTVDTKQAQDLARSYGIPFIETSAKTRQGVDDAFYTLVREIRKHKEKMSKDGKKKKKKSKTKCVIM
How it was run: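 Ratio of phospho-ERK(Thr202/Tyr204) to GAPDH, read by near-infrared secondary antibodies on fixed, permeabilised NCI-H358 cells, expressed relative to DMSO control. Compound exposure was 3 h at 0.5% DMSO. IC50 values come from 4-parameter curve fits.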

half-life at 5 µM [1] [h]	IC50 (KRas G12C) [nM]	SMILES
> 33.3	> 1000	C=C(OC)C(=O)N1CCN(c2nc(OC[C@@H]3CCCN3C)nc3c2CCN(c2cccc4cccc(C)c24)C3)C[C@@H]1CC#N [Example 512, 2-[(2S)-1-(2-methoxyprop-2-enoyl)-4-[7-(8-methyl-1-naphthyl)-2-[[(2S)-1-methylpyrrolidin-2-yl]methoxy]-6,8-dihydro-5H-pyrido[3,4-d]pyrimidin-4-yl]piperazin-2-yl]acetonitrile]
> 33.3	0.1 to 1000	CN1CCC[C@H]1COc1nc2c(c(N3CCN(C(=O)/C=C/CF)[C@@H](CC#N)C3)n1)CCN(c1cccc3cccc(Cl)c13)C2 [Example 479, 2-[(2S)-4-[7-(8-chloro-1-naphthyl)-2-[[(2S)-1-methylpyrrolidin-2-yl]methoxy]-6,8-dihydro-5H-pyrido[3,4-d]pyrimidin-4-yl]-1-[(E)-4-fluorobut-2-enoyl]piperazin-2-yl]acetonitrile]
16.7 to 33.3	0.1 to 1000	CN1CCC[C@H]1COc1nc2c(c(N3CCN(C(=O)/C=C/CN4CCOCC4)[C@@H](CC#N)C3)n1)CCN(c1cccc3cccc(Cl)c13)C2 [Example 367, 2-[(2S)-4-[7-(8-chloro-1-naphthyl)-2-[[(2S)-1-methylpyrrolidin-2-yl]methoxy]-6,8-dihydro-5H-pyrido[3,4-d]pyrimidin-4-yl]-1-[(E)-4-morpholinobut-2-enoyl]piperazin-2-yl]acetonitrile]
≤ 3.33	0.1 to 1000	Cc1cccc2cccc(N3CCc4c(nc(OC[C@@H]5CCCN5C)nc4N4CCN(C(=O)/C=C/C#N)[C@@H](CC#N)C4)C3)c12 [Example 501, (E)-4-((S)-2-(cyanomethyl)-4-(7-(8-methylnaphthalen-1-yl)-2-(((S)-1-methylpyrrolidin-2-yl)methoxy)-5,6,7,8-tetrahydropyrido[3,4-d]pyrimidin-4-yl)piperazin-1-yl)-4-oxobut-2-enenitrile]
16.7 to 33.3	0.1 to 1000	Cc1cccc2cccc(N3CCc4c(nc(OC[C@@H]5CCCN5C)nc4N4CCN(C(=O)/C=C/CO)[C@@H](CC#N)C4)C3)c12 [Example 510, 2-((S)-1-((E)-4-hydroxybut-2-enoyl)-4-(7-(8-methylnaphthalen-1-yl)-2-(((S)-1-methylpyrrolidin-2-yl)methoxy)-5,6,7,8-tetrahydropyrido[3,4-d]pyrimidin-4-yl)piperazin-2-yl)acetonitrile]
> 33.3	0.1 to 1000	C/C=C/C(=O)N1CCN(c2nc(OC[C@@H]3CCCN3C)nc3c2CCN(c2cccc4cccc(C)c24)C3)C[C@@H]1CC#N [Example 372]
> 33.3	> 1000	C=C(OC)C(=O)N1CCN(c2nc(OC[C@@H]3CCCN3C)nc3c2CCN(c2cccc4cccc(Cl)c24)C3)C[C@@H]1CC#N [Example 514, 2-[(2S)-4-[7-(8-chloro-1-naphthyl)-2-[[(2S)-1-methylpyrrolidin-2-yl]methoxy]-6,8-dihydro-5H-pyrido[3,4-d]pyrimidin-4-yl]-1-(2-methoxyprop-2-enoyl)piperazin-2-yl] acetonitrile]
≤ 3.33	0.1 to 1000	C=C(C(=O)N1CCN(c2nc(OC[C@@H]3CCCN3C)nc3c2CCN(c2cccc4cccc(Cl)c24)C3)C[C@@H]1CC#N)C(F)(F)F [Example 504, 2-[(2S)-4-[7-(8-chloro-1-naphthyl)-2-[[(2S)-1-methylpyrrolidin-2-yl]methoxy]-6,8-dihydro-5H-pyrido[3,4-d]pyrimidin-4-yl]-1-[2-(trifluoromethyl)prop-2-enoyl]piperazin-2-yl]acetonitrile]
> 33.3	0.1 to 1000	Cc1cccc2cccc(N3CCc4c(nc(OC[C@@H]5CCCN5C)nc4N4CCN(C(=O)/C=C/Cn5cccn5)[C@@H](CC#N)C4)C3)c12 [Example 509]
> 33.3	0.1 to 1000	COC/C=C/C(=O)N1CCN(c2nc(OC[C@@H]3CCCN3C)nc3c2CCN(c2cccc4cccc(Cl)c24)C3)C[C@@H]1CC#N [Example 524, 2-((S)-4-(7-(8-chloronaphthalen-1-yl)-2-(((S)-1-methylpyrrolidin-2-yl)methoxy)-5,6,7,8-tetrahydropyrido[3,4-d]pyrimidin-4-yl)-1-((E)-4-methoxybut-2-enoyl)piperazin-2-yl)acetonitrile]
≤ 3.33	0.1 to 1000	Cc1cccc2cccc(N3CCc4c(nc(OC[C@@H]5CCCN5C)nc4N4CCN(C(=O)/C=C/C(F)(F)F)[C@@H](CC#N)C4)C3)c12 [Example 491, 2-((S)-4-(7-(8-methylnaphthalen-1-yl)-2-(((S)-1-methylpyrrolidin-2-yl)methoxy)-5,6,7,8-tetrahydropyrido[3,4-d]pyrimidin-4-yl)-1-((E)-4,4,4-trifluorobut-2-enoyl)piperazin-2-yl)acetonitrile]
> 33.3	0.1 to 1000	CN1CCC[C@H]1COc1nc2c(c(N3CCN(C(=O)/C=C/CN4CCC(F)C4)[C@@H](CC#N)C3)n1)CCN(c1cccc3cccc(Cl)c13)C2 (stereo partly drawn) [Example 480, 2-[(2S)-4-[7-(8-chloro-1-naphthyl)-2-[[(2S)-1-methylpyrrolidin-2-yl]methoxy]-6,8-dihydro-5H-pyrido[3,4-d]pyrimidin-4-yl]-1-[(E)-4-(3-fluoropyrrolidin-1-yl)but-2-enoyl]piperazin-2-yl]acetonitrile]
16.7 to 33.3	0.1 to 1000	CN1CCC[C@H]1COc1nc2c(c(N3CCN(C(=O)/C=C/CO)[C@@H](CC#N)C3)n1)CCN(c1cccc3cccc(Cl)c13)C2 [Example 513, 2-[(2S)-4-[7-(8-chloro-1-naphthyl)-2-[[(2S)-1-methylpyrrolidin-2-yl]methoxy]-6,8-dihydro-5H-pyrido[3,4-d]pyrimidin-4-yl]-1-[(E)-4-hydroxybut-2-enoyl]piperazin-2-yl]acetonitrile]
> 33.3	0.1 to 1000	C=C(F)C(=O)N1CCN(c2nc(OC[C@@H]3CCCN3C)nc3c2CCN(c2cccc4cccc(C)c24)C3)C[C@@H]1CC#N [Example 507]
16.7 to 33.3	0.1 to 1000	Cc1cccc2cccc(N3CCc4c(nc(OC[C@@H]5CCCN5C)nc4N4CCN(C(=O)/C=C/CF)[C@@H](CC#N)C4)C3)c12 [Example 506, 2-((S)-1-((E)-4-fluorobut-2-enoyl)-4-(7-(8-methylnaphthalen-1-yl)-2-(((S)-1-methylpyrrolidin-2-yl)methoxy)-5,6,7,8-tetrahydropyrido[3,4-d]pyrimidin-4-yl)piperazin-2-yl)acetonitrile]
> 33.3	0.1 to 1000	C=C(F)C(=O)N1CCN(c2nc(OC[C@H]3CCCN3C)nc3c2CCN(c2cccc4cccc(C)c24)C3)C[C@@H]1CC#N [Example 516, 2-((S)-1-(2-fluoroacryloyl)-4-(7-(8-methylnaphthalen-1-yl)-2-(((R)-1-methylpyrrolidin-2-yl)methoxy)-5,6,7,8-tetrahydropyrido[3,4-d]pyrimidin-4-yl)piperazin-2-yl)acetonitrile]
